For data set [1], the system named is Chromobacterium violaceum (DSM 30191). Put plainly: Antimicrobial assay (MIC), C. violaceum. It is filed as cell-based. Conditions: overnight incubation, n.i. = no inhibition up to 67 μg/mL. How it is done:
(§1) The antimicrobial effects of the isolated compounds were determined using our established protocols.[19] Generally, an array of clinically relevant microorganisms consisting of bacteria, namely, S. aureus (DSM 346), A. baumanii (DSM 30008), B. subtilis (DSM 10), E. coli (DSM 1116), P. aeruginosa (PA14), C. violaceum (DSM 30191), and M. smegmatis (ATCC 700084), and fungi including M. hiemalis (DSM 2656), C. albicans (DSM 1665), R. glutinis (DSM 10134), S. pombe (DSM 70572), and P. anomala (DSM 6766), were used. […] The minimum inhibitory concentrations (MIC) were recorded after an overnight incubation as the lowest concentration under which no microbial growth was visualized. The microorganisms were obtained from the German Collection of Microorganisms and Cell Cultures (DSMZ, Braunschweig, Germany).

Data set [2] has as its system Bacillus subtilis (DSM 10). Put plainly: Antimicrobial assay (MIC), B. subtilis. It is filed as cell-based. The protocol: as §1
Data set [3] relates to Rhodotorula glutinis (DSM 10134). Put plainly: Antimicrobial assay (MIC), R. glutinis. Type of data set: cell-based. How it is done:
as §1

Data set [4] concerns Mucor hiemalis (DSM 2656). Put plainly: Antimicrobial assay (MIC), M. hiemalis. It is filed as cell-based. How it is done:
as §1

In data set [5] the test system is Pseudomonas aeruginosa (PA14). Put plainly: Antimicrobial assay (MIC), P. aeruginosa. Type of data set: cell-based. Conditions: overnight incubation, n.i. = no inhibition up to 67 μg/mL. How it is done: as §1
The subject of data set [6] is Staphylococcus aureus (DSM 346). Put plainly: Antimicrobial assay (MIC), S. aureus. Type of data set: cell-based. The protocol:
as §1

The subject of data set [7] is Acinetobacter baumanii (DSM 30008). Briefly: Antimicrobial assay (MIC), A. baumanii. Type of data set: cell-based. Conditions: overnight incubation, n.i. = no inhibition up to 67 μg/mL. How it is done: as §1
Data set [8] has as its system Escherichia coli (DSM 1116). Put plainly: Antimicrobial assay (MIC), E. coli. Type of data set: cell-based. To be noted: overnight incubation, n.i. = no inhibition up to 67 μg/mL. How it is done:
as §1

The test system of data set [9] is Candida albicans (DSM 1665). Put plainly: Antimicrobial assay (MIC), C. albicans. Type of data set: cell-based. The protocol: as §1
The subject of data set [10] is Schizosaccharomyces pombe (DSM 70572). Briefly: Antimicrobial assay (MIC), S. pombe. Type of data set: cell-based. The protocol:
as §1

Data set [11] concerns Pichia anomala (DSM 6766). Briefly: Antimicrobial assay (MIC), P. anomala. It is filed as cell-based. The protocol: as §1
Data set [12] has as its system Mycobacterium smegmatis (ATCC 700084). Briefly: Antimicrobial assay (MIC), M. smegmatis. It is filed as cell-based. How it is done:
as §1

In data set [13] the test system is P. anomala, M. hiemalis, and Rhodotorula glutinis. Put plainly: Antimicrobial assay (MIC), three fungi summarised in text. It is filed as cell-based. Conditions: range over three fungi. The protocol: as §1
The next data set has as its system all tested cell lines. Briefly: Cytotoxicity (MTT) assay, all tested cell lines. Type of data set: cell-based. To be noted: for IC50: read-out: IC50 values, range against all tested cell lines. An excerpt: (§2) MTT (3-(4,5-dimethylthiayol-2-yl)-2,5-diphenyltetrazolium bromide)-based assay was used to determine in vitro cytotoxicity as previously reported.[24] The tested mammalian cell lines included mouse fibroblasts (L929), endocervical adenocarcinoma (KB3.1), human lung carcinoma (A549), breast adenocarcinoma (MCF-7), prostate carcinoma (PC-3), and epidermoid carcinoma cells (A431). Epothilone B was used as a positive control.

The test system of data set [14] is human endocervical adenocarcinoma (KB3.1). Put plainly: Cytotoxicity (MTT) assay, KB3.1. Type of data set: cell-based. To be noted: Homo sapiens, KB 3-1, n.a. = no activity. The source says: (§3) MTT (3-(4,5-dimethylthiayol-2-yl)-2,5-diphenyltetrazolium bromide)-based assay was used to determine in vitro cytotoxicity as previously reported.[24] The tested mammalian cell lines included mouse fibroblasts (L929), endocervical adenocarcinoma (KB3.1), human lung carcinoma (A549), breast adenocarcinoma (MCF-7), prostate carcinoma (PC-3), and epidermoid carcinoma cells (A431).

The subject of data set [15] is human epidermoid carcinoma (A431). Put plainly: Cytotoxicity (MTT) assay, A431. Type of data set: cell-based. Conditions: A-431, A431, read-out: IC50.
From the text: as §2

Data set [16] deals with human ovarian cancer (SKOV-3). Briefly: Cytotoxicity (MTT) assay, SKOV-3. To be noted: SK-OV-3, SKOV-3, read-out: IC50. It is filed as cell-based.
Another data set deals with mouse fibroblast (L929). Put plainly: Cytotoxicity (MTT) assay, L929. Conditions: Mus musculus, n.a. = no activity. It is filed as cell-based.
From the text: as §3

On the set-up of data set [17]: method as in doi:10.1021/np50038a013. Conditions: previous report; cited from earlier work.
The test system of data set [18] is human lung carcinoma (A549). Put plainly: Cytotoxicity (MTT) assay, A549. Type of data set: cell-based. Conditions: A549, read-out: IC50.
From the text: as §2

Data set [19] has as its system human prostate carcinoma (PC-3). Put plainly: Cytotoxicity (MTT) assay, PC-3. Type of data set: cell-based. To be noted: PC-3, read-out: IC50.
From the text: as §2

The test system of data set [20] is human breast adenocarcinoma (MCF-7). Briefly: Cytotoxicity (MTT) assay, MCF-7. It is filed as cell-based. To be noted: MCF7, MCF-7, read-out: IC50.
From the text: as §2

Where [21] appears, read: overnight incubation, n.i. = no inhibition up to 67 μg/mL.
The mark [22] stands for this setting: DSM10134, overnight incubation, n.i. = no inhibition up to 67 μg/mL, read-out: MIC.
The mark [23] stands for this setting: DSM2656, overnight incubation, n.i. = no inhibition up to 67 μg/mL, read-out: MIC.
Setting [24] is: Mycobacterium smegmatis, overnight incubation, n.i. = no inhibition up to 67 μg/mL.

Values after ≈ are worked out from the molar mass of the structure shown. Values joined by “and” are separate entries in the source; they are usually repeats but may differ in a detail not shown here. Identical values can stand only once. Like-named read-outs stand apart in the source and are kept apart here.

As to `CC(C)=CCc1cc(C=O)ccc1O` [Compound 9, 4-hydroxy-3(3-methylbut-2-enyl)benzaldehyde], the MIC result is “n.i” in [1]; “n.i” in [2] (setting [21]); 66.6 µg/mL (≈ 350 µM) in [3] (setting [22]); 66.6 µg/mL (≈ 350 µM) in data set [4] (setting [23]); “n.i” in [5]; “n.i” in [6] (setting [21]). The MIC result in data set [7] is “n.i”; in data set [8], “n.i”; in [9] (setting [21]) it was “n.i”; in data set [10] (setting [21]) it was “n.i”; in data set [11] (Hansenula anomala, DSM6766, Pichia anomala, overnight incubation, n.i. = no inhibition up to 67 μg/mL, read-out: MIC) it was 33.3 µg/mL (≈ 175 µM); in data set [12] (setting [24]), “n.i”. Also, the “MIC values, range against P. anomala, M. hiemalis, and Rhodotorula glutinis” value in [13] lay within 33.3 to 66.6 µg/mL. Moreover, the “cytotoxic effects (in words)” value in the data set with all tested cell lines (tested cell lines) is given as “no apparent cytotoxic effects”.

As for `CC1(C)CC2C=C(C=O)[C@]3(C=O)C[C@]3(C)C2C1` (single isomer, unassigned; (+)) [Compound 8, (+)-isovelleral], the MIC entry was “n.i” in [1]; 33.3 µg/mL (≈ 143 µM) in data set [2] (DSM10); 16.6 µg/mL (≈ 71.5 µM) in [3] (DSM10134); 8.3 µg/mL (≈ 35.7 µM) in data set [4] (DSM2656); “n.i” in [5]; 33.3 µg/mL (≈ 143 µM) in [6] (DSM346). The MIC entry in [7] was “n.i”; in [8] it was “n.i”; in data set [9] (DSM1665), 33.3 µg/mL (≈ 143 µM); in data set [10] (DSM70572), 33.3 µg/mL (≈ 143 µM); in data set [11] (Hansenula anomala, DSM6766), 16.6 µg/mL (≈ 71.5 µM); in data set [12] (Mycolicibacterium smegmatis, ATCC700084) it was 33.3 µg/mL (≈ 143 µM). For the same molecule, the IC50 in data set [14] came out at 10.3 µM; in data set [15], 3.4 µM; in data set [16] it was 5.2 µM; with mouse fibroblast (L929) it was 10.3 µM; in data set [18], 30.2 µM; in [19], 3.9 µM. For the same molecule, the IC50 is 2.8 µM in [20] and 2.8 to 30.2 µM in the data set with all tested cell lines. Besides, the mutagenicity result in [17] is given as “revealed mutagenicity”.

Regarding `CC(=O)O[C@@H]1CC2C3=C(C(C)C)CC[C@]3(C)CC[C@@]2(C)[C@@H](OC2OC[C@@H](O)[C@H](O)[C@H]2O)C=C1C=O` (stereo partly shown) [Compound 7, erinacine P], the MIC result in [1] is “n.i”; in data set [2] (DSM10, overnight incubation, n.i. = no inhibition up to 67 μg/mL, read-out: MIC), 33.3 µg/mL (≈ 67.6 µM); in data set [3] (setting [22]), 16.6 µg/mL (≈ 33.7 µM); in [4] (setting [23]), 66.6 µg/mL (≈ 135 µM); in data set [5], “n.i”; in data set [6] (DSM346, overnight incubation, n.i. = no inhibition up to 67 μg/mL, read-out: MIC), 66.6 µg/mL (≈ 135 µM). In addition, the MIC entry is given as “n.i” in data set [7]; “n.i” in [8]; “n.i” in data set [9] (setting [21]); “n.i” in data set [10] (setting [21]); “n.i” in data set [11] (Pichia anomala, overnight incubation, n.i. = no inhibition up to 67 μg/mL); “n.i” in data set [12] (setting [24]). Also, the IC50 in [14] stood at 5.1 µM; in data set [15] it was 3.5 µM; in data set [16], 7.7 µM; in the data set on mouse fibroblast (L929), 13 µM; in [18], 14.2 µM; in data set [19], 4.9 µM. Further, the IC50 in data set [20] is 3.3 µM; in the data set with all tested cell lines (range over all tested cell lines), 3.3 to 14.2 µM and 3.5 to 14.2 µM.

The values are drawn from paper PMC11044139, “Comparative Study of Toxic Terpenoidal Aldehydes and Lactone Derivatives from the European Polypore Bondarzewia mesenterica” (ACS Omega, 2024).
